Measured values published in PubChem BioAssay AID328 (DTP/NCI, 2004).
Where “and” joins values, the source holds several entries; their conditions need not be identical. Equal values may be shown once. Inconclusive results and toxic doses are left out. Residues, ends and D or L forms follow the SMILES beside them. *: point of attachment. Cbz = O=C(OCc1ccccc1)*

Test system: BDF1 mice, P388 leukemia ip, median survival T/C
Test: NCI In Vivo Anticancer Drug Screen. Data for tumor model P388 Leukemia (intraperitoneal) in B6D2F1 (BDF1) mice
Details: endpoint: median survival time, higher = longer survival
Procedure, shortened: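 Compound-treated tumour-bearing mice were compared with vehicle-treated controls. Survival was recorded, and the value is the treated-group measurement divided by the control-group measurement (T/C).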

[1] = dose: 100.0 mg/kg/injection, schedule: Q04DX003 (ip), vehicle: saline
[2] = dose: 100.0 mg/kg/injection, schedule: Q01DX009 (ip), vehicle: saline with Tween-80
[3] = dose: 200.0 mg/kg/injection, schedule: Q01DX009 (ip), vehicle: saline with Tween-80
[4] = dose: 400.0 mg/kg/injection, schedule: Q01DX009 (ip), vehicle: saline with Tween-80
[5] = dose: 100.0 mg/kg/injection, schedule: Q04DX003 (ip), vehicle: Klucel (hydroxypropylcellulose) (HPC)
[6] = dose: 200.0 mg/kg/injection, schedule: Q04DX003 (ip), vehicle: Klucel (hydroxypropylcellulose) (HPC)
[7] = dose: 400.0 mg/kg/injection, schedule: Q04DX003 (ip), vehicle: Klucel (hydroxypropylcellulose) (HPC)
[8] = dose: 100.0 mg/kg/injection, schedule: Q01DX009 (ip), vehicle: saline
[9] = dose: 200.0 mg/kg/injection, schedule: Q01DX009 (ip), vehicle: saline

For `CCOC(=O)C1(c2ccccc2)CCCN(C)CC1` (centres undefined), the T/C [1] was 94 % of control.

In the case of `CCNc1nc2ncnc(NCC)c2[nH]1`, the T/C (dose: 3.13 mg/kg/injection, schedule: Q01DX009 (ip), vehicle: saline with Tween-80) is reported as 94 % of control, the T/C (dose: 6.25 mg/kg/injection, schedule: Q01DX009 (ip), vehicle: saline with Tween-80) is reported as 103 % of control and the T/C (dose: 12.5 mg/kg/injection, schedule: Q01DX009 (ip), vehicle: saline with Tween-80) is reported as 100 % of control. The T/C (dose: 25.0 mg/kg/injection, schedule: Q01DX009 (ip), vehicle: saline with Tween-80) was 101 % of control.

For `CC(c1ccccc1)N1COc2ccc3ccccc3c2C1` (centres undefined), the T/C [2] was 100 % of control, the T/C [3] was 104 % of control and the T/C [4] was 113 % of control.

For `CCOc1ccc(OCC)c2c1C(=O)c1ccccc1C2=O`, the T/C [5] was 100 % of control, the T/C [6] was 105 % of control and the T/C [7] was 111 % of control.

For `COc1ccc(/C=C2\N=C(c3ccccc3)OC2=O)cc1OC`, the T/C (dose: 100.0 mg/kg/injection, schedule: Q01DX001 (ip), vehicle: saline) was 90 % of control, the T/C (dose: 200.0 mg/kg/injection, schedule: Q01DX001 (ip), vehicle: saline) was 104 % of control and the T/C (dose: 400.0 mg/kg/injection, schedule: Q01DX001 (ip), vehicle: saline) was 104 % of control.

For `CS(=O)(=O)c1nc(N)nc2nc[nH]c12`, the T/C (dose: 75.0 mg/kg/injection, schedule: Q04DX003 (ip), vehicle: saline) was 104 % of control, the T/C [8] was 115 % of control and the T/C (dose: 150.0 mg/kg/injection, schedule: Q04DX003 (ip), vehicle: saline) was 100 % of control. For the same compound, the T/C [9] was 105 % of control and the T/C (dose: 300.0 mg/kg/injection, schedule: Q04DX003 (ip), vehicle: saline) was 109 % of control.

`CCOC(=O)CNC(=O)C(CC(C)C)NC(=O)C1CCCN1C(=O)OCc1ccccc1` (stereo not drawn) (Cbz-Pro-Leu-Gly-OEt; configuration not given here) was tested, and the T/C (dose: 12.5 mg/kg/injection, schedule: Q01DX009 (ip), vehicle: Klucel (hydroxypropylcellulose) (HPC)) was 124 % of control, the T/C (dose: 25.0 mg/kg/injection, schedule: Q01DX009 (ip), vehicle: Klucel (hydroxypropylcellulose) (HPC)) was 89 % of control and the T/C (dose: 50.0 mg/kg/injection, schedule: Q01DX009 (ip), vehicle: Klucel (hydroxypropylcellulose) (HPC)) was 95 % of control. For the same compound, the T/C [5] was 87 % of control, the T/C [6] was 91 % of control and the T/C [7] was 87 % of control.

In the case of `CN=C(N)c1ccc(NC(=O)c2ccc(C(=O)Nc3ccc(C(N)=NC)cc3)c(N)c2)cc1`, the T/C (dose: 2.0 mg/kg/injection, schedule: Q04DX003 (ip), vehicle: Klucel (hydroxypropylcellulose) (HPC)) is reported as 107 % of control, the T/C (dose: 2.6 mg/kg/injection, schedule: Q01DX009 (ip), vehicle: Klucel (hydroxypropylcellulose) (HPC)) is reported as 190 % of control and the T/C (dose: 3.0 mg/kg/injection, schedule: Q04DX003 (ip), vehicle: Klucel (hydroxypropylcellulose) (HPC)) is reported as 115 % of control. The T/C (dose: 4.0 mg/kg/injection, schedule: Q01DX009 (ip), vehicle: Klucel (hydroxypropylcellulose) (HPC)) was 263 % of control, the T/C (dose: 6.0 mg/kg/injection, schedule: Q01DX009 (ip), vehicle: Klucel (hydroxypropylcellulose) (HPC)) was 272 % of control and the T/C (dose: 6.25 mg/kg/injection, schedule: Q01DX009 (ip), vehicle: Klucel (hydroxypropylcellulose) (HPC)) was 150 % of control. For the same compound, the T/C (dose: 8.0 mg/kg/injection, schedule: Q04DX003 (ip), vehicle: Klucel (hydroxypropylcellulose) (HPC)) was 150 % of control and 175 % of control, the T/C (dose: 12.0 mg/kg/injection, schedule: Q04DX003 (ip), vehicle: Klucel (hydroxypropylcellulose) (HPC)) was 170 % of control and 190 % of control and the T/C (dose: 12.5 mg/kg/injection, schedule: Q04DX003 (ip), vehicle: Klucel (hydroxypropylcellulose) (HPC)) was 169 % of control. For the same compound, the T/C (dose: 18.0 mg/kg/injection, schedule: Q04DX003 (ip), vehicle: Klucel (hydroxypropylcellulose) (HPC)) was 150 % of control and 209 % of control.

In the case of `CC(=O)c1c(C)c([N+](=O)[O-])c(C(C)(C)C)c([N+](=O)[O-])c1C`, the T/C (dose: 200.0 mg/kg/injection, schedule: Q01DX009 (ip), vehicle: Klucel (hydroxypropylcellulose) (HPC)) is reported as 91 % of control and 100 % of control and the T/C (dose: 400.0 mg/kg/injection, schedule: Q01DX009 (ip), vehicle: Klucel (hydroxypropylcellulose) (HPC)) is reported as 100 % of control and 123 % of control.

In the case of `CC(=O)Nc1ccc(S(=O)(=O)SC(F)(F)F)cc1`, the T/C (dose: 3.13 mg/kg/injection, schedule: Q01DX010 (ip), vehicle: saline) is reported as 100 % of control, the T/C (dose: 6.25 mg/kg/injection, schedule: Q01DX010 (ip), vehicle: saline) is reported as 104 % of control and the T/C (dose: 12.5 mg/kg/injection, schedule: Q01DX010 (ip), vehicle: saline) is reported as 100 % of control.

With `CCCCCn1cnc2c(=S)nc[nH]c21` the T/C [2] was 90 % of control, the T/C [3] was 104 % of control and the T/C [4] was 90 % of control.

For `CN=C(N)NCCCCCCCCNC(N)=NC`, the T/C (dose: 6.25 mg/kg/injection, schedule: Q01DX009 (ip), vehicle: saline) was 110 % of control and the T/C (dose: 12.5 mg/kg/injection, schedule: Q01DX009 (ip), vehicle: saline) was 122 % of control.

With `Cc1cccc(Cl)c1NC(=O)CCCl` the T/C (dose: 100.0 mg/kg/injection, schedule: Q04DX003 (ip), vehicle: saline with Tween-80) was 90 % of control, the T/C (dose: 200.0 mg/kg/injection, schedule: Q04DX003 (ip), vehicle: saline with Tween-80) was 90 % of control and the T/C (dose: 400.0 mg/kg/injection, schedule: Q04DX003 (ip), vehicle: saline with Tween-80) was 109 % of control.

In the case of `CNNCc1ccc(C(=O)NC(N)=O)cc1`, the T/C [1] is reported as 95 % of control, the T/C (dose: 133.0 mg/kg/injection, schedule: Q01DX009 (ip), vehicle: saline) is reported as 111 % of control and the T/C [9] is reported as 100 % of control. The T/C (dose: 200.0 mg/kg/injection, schedule: Q04DX003 (ip), vehicle: saline) was 95 % of control, the T/C (dose: 400.0 mg/kg/injection, schedule: Q01DX009 (ip), vehicle: saline) was 107 % of control and the T/C (dose: 400.0 mg/kg/injection, schedule: Q04DX003 (ip), vehicle: saline) was 113 % of control.

For `O=C(/C=C/c1ccc(Cl)c(Cl)c1)c1ccc(Cl)cc1`, the T/C (dose: 12.5 mg/kg/injection, schedule: Q04DX003 (ip), vehicle: saline with Tween-80) was 100 % of control, the T/C (dose: 25.0 mg/kg/injection, schedule: Q04DX003 (ip), vehicle: saline with Tween-80) was 100 % of control and the T/C (dose: 50.0 mg/kg/injection, schedule: Q04DX003 (ip), vehicle: saline with Tween-80) was 90 % of control.

For `CCOC(=O)Nc1cncc(NC(=O)OCC)n1`, the T/C (dose: 6.25 mg/kg/injection, schedule: Q04DX003 (ip), vehicle: water) was 106 % of control, the T/C (dose: 12.5 mg/kg/injection, schedule: Q04DX003 (ip), vehicle: water) was 100 % of control and the T/C (dose: 25.0 mg/kg/injection, schedule: Q01DX009 (ip), vehicle: water) was 100 % of control. The T/C (dose: 25.0 mg/kg/injection, schedule: Q04DX003 (ip), vehicle: water) was 105 % of control, the T/C (dose: 50.0 mg/kg/injection, schedule: Q01DX009 (ip), vehicle: water) was 101 % of control and the T/C (dose: 50.0 mg/kg/injection, schedule: Q04DX003 (ip), vehicle: water) was 101 % of control. For the same compound, the T/C (dose: 100.0 mg/kg/injection, schedule: Q01DX009 (ip), vehicle: water) was 93 % of control, the T/C (dose: 100.0 mg/kg/injection, schedule: Q04DX003 (ip), vehicle: water) was 100 % of control and the T/C (dose: 200.0 mg/kg/injection, schedule: Q01DX009 (ip), vehicle: water) was 95 % of control. For the same compound, the T/C (dose: 400.0 mg/kg/injection, schedule: Q01DX009 (ip), vehicle: water) was 87 % of control.

`COC(=O)C1(N)CCCC1` was tested, and the T/C [8] was 91 % of control and the T/C [9] was 104 % of control.
